Results taken from patent US12458599B2, “Bioactivatable devices and related methods” (CTI Vascular AG, priority 2020, dated 2025).
Read-outs that look alike come from different tables or passages of the source.

Experiments:
[1] = solubility of ATTM in solvents; type: physicochemical
Source text: Preparation of Exemplary Coating Formulations: (NH4)2MoS4 (“ATTM” or ammoniumtetrathiomolybdate) as a representative compound for a pharmaceutically active copper chelating agent can be dissolved in a suitable solvent including, without limitation dimethyl acetamide, dimethylsulfoxide or tetramethylurea to provide a desired saturation concentration. […] The concentrated ATTM solution can be mixed with a variety of suitable matrix polymers commonly known to one of ordinary skill in the art, including, without limitation PVDF-HVP, PET, PLGA, PLLA, PHA, polyurethanes, polyphosphazenes, silicones and equivalents, in a suitable volume ratio to form a readily available coating formulation with a defined polymer to ATTM weight ratio per ml coating formulation. The matrix polymer solvent can be chosen to be mutually compatible with the ATTM solvent in order to avoid potential phase separation. The obtained deep red to orange solution can be centrifuged, and the supernatant filtered through a 0.22 μm PTFE filter to remove any solid residue. The finally obtained ATTM concentration can be determined via UV-Vis spectroscopy.

[2] = cited from earlier work
[3] = tested on: venous endothelial cell proliferation; conditions: cited from earlier work
IL-1α = conditions: cited from earlier work
aqueous solubility = type: physicochemical
Description: Solubility: Information on the actual quantitative solubility of solid Molybdenum disulfide can be sparse, and the compound can be often quoted as being insoluble in water. […] Thus, upon prolonged contact between MoS2 coated surface with an aqueous medium, a saturation concentration of 0.125-1.25 μM MoO4^2− can reasonably be expected.

SMILES	solubility in acetone, acetonitrile, cyclohexanone, methylisobutylketone [1]	solubility in dimethylacetamide, tetramethylurea, dimethylsulfoxide, N-methylpyrrolidone, ethylendiamine, pyridine, methanol, ethanediol and water [1]	aqueous solubility ([2]; reported)	systemic concentration sufficient to achieve inhibition of venous endothelial cell proliferation [3] [µM]	concentration inhibiting the release of IL-1α (IL-1α) [nM]	saturation concentration of MoO4^2− (aqueous solubility; prolonged contact of MoS2 coated surface with aqueous medium, expected) [µM]	predicted maximum aqueous saturation concentration of the molybdate species (TM0) (aqueous solubility; stemming from MoS2) [µM]	aqueous solubility ([2]; aqueous environments) [µM]
[NH4+].[NH4+].[SH-].[SH-].[S]=[Mo]=[S] [ATTM, Ammoniumtetrathiomolybdate; (NH4)2MoS4]	limited solubility	reasonable solubility	at least 7 mM	5	250	–	–	–
[S]=[Mo]=[S] [MoS2, Molybdenum disulfide]	–	–	–	–	–	0.125 to 1.25	1.25	0.125 to 1.25
